Assay results taken from patent publication US20240277666A1, “Combination Treatments for Cancer Patients and Methods for Identifying Same” (Scandion Oncology A/S, priority 2021, published 2024).

What was measured:
UGT1A1 [1] = molecular target: T1, UGT1A1 (Homo sapiens, UniProt P22309); assay: Clinical study of SCO-101 with FOLFIRI: serum bilirubin / bilirubin index as surrogate of UGT1A1 activity; type: in vivo; parameters: from tissue; host or cells: patients in vivo (enzyme primarily in the liver); settings: for mean bilirubin index score (day 12 / day 7 bilirubin serum concentration): cohort 1 (150 mg SCO-101), cycle 1; for highest bilirubin index score / lowest bilirubin index score: cohort 1, cycle 1
T1 sequence (P22309 26-533): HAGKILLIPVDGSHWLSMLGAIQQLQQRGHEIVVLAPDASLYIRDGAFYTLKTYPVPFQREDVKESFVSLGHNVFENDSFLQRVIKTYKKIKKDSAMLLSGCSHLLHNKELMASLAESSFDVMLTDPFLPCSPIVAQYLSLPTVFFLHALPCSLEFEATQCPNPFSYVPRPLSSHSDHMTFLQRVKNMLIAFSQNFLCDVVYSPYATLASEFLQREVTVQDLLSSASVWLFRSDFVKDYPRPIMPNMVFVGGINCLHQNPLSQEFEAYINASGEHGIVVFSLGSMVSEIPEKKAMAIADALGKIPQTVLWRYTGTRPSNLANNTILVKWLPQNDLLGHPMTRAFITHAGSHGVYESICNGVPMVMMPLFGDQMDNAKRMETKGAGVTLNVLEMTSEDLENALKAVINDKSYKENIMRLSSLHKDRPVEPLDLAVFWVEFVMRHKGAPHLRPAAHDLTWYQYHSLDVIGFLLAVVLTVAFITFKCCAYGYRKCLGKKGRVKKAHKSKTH
Description: The term “bilirubin index” as used herein or “bilirubin index score” which are used interchangeably, refer to a patient's rate of bilirubin normalization subsequent to administration of an UGT1A1 inhibitor to the patient. Herein, the bilirubin index is determined subsequent to administration of an UGT1A1 inhibitor to the patient for a number of consecutive days, such as 1, 2, 3, 4, 5, or 6, preferably 6 days. In some embodiments, based on 6 consecutive days of administration with an UGT1A1 inhibitor, the bilirubin index can be determined as the bilirubin serum concentration (unconjugated or total bilirubin) on day 12 divided with the bilirubin serum concentration on day 7 and thus is an indicator of how much the patients' UGT1A1 activity has normalized following cessation of treatment with the UGT1A1 inhibitor, such as SCO-101, and can be determined using bilirubin as a surrogate marker. Based on 6 consecutive days of administration with an UGT1A1 inhibitor, the bilirubin index is determined as the bilirubin serum concentration (unconjugated or total bilirubin) on day 12 divided with the bilirubin serum concentration on day 7 and thus is an indicator of how much the patients' UGT1A1 activity has normalized following cessation of SCO-101 treatment, and can be determined using bilirubin as a surrogate marker. In some embodiments, the bilirubin index is determined by comparison on bilirubin serum concentrations obtained from other days than day 7 and day 12. The bilirubin index is also referred to herein as the CT2/CT1 ratio, wherein CT1 is the plasma concentration of unconjugated bilirubin in the patient at a time point T1, whereas CT2 is the plasma concentration of unconjugated bilirubin in the patient at a time point T2 which is after discontinuing administration of the UGT1A1 inhibitor.
Bilirubin: Blood sampling for analysis of bilirubin (total, unconjugated and conjugated) were withdrawn at Screening (up to 4 weeks prior start of treatment), day 5, day 7 and day 12 in the first treatment cycle.
UGT1A1 is the primary enzyme responsible for conjugation of bilirubin and metabolism of Irinotecan's active metabolite SN-38.

UGT1A1 [2] = molecular target: T1, UGT1A1; assay: in vitro UGT1A1 inhibition assay; type: biochemical; settings: read-out: IC50 towards UGT1A1
From the text: The term “UGT1A1 inhibitor” as used herein refers to a molecule which is capable of binding to the enzyme uridine diphosphate (UDP)-glycuronosyl transferase (UGT1A1) and decrease the enzymatic activity of UGT1A1. The UGT1A1 enzyme, primarily found in the liver, is responsible for the gluronidation of bilirubin, converting it from the toxic form of bilirubin (unconjugated bilirubin) to its nontoxic, water-soluble form (conjugated bilirubin). Whether or not a particular molecule is an UGT1A1 inhibitor can be determined by examining the molecule's IC50 in vitro in common UGT1A1 inhibition assays. […] In one embodiment, the IC50 is 5 μM or less, such as 4 μM or less, such as 3 μM or less, such as 2 μM or less, for example between 0.1 μM and 2.0 μM. […] In some embodiments, the UGT1A1 inhibitor of the present disclosure is a non-competitive UGT1A1 inhibitor. In some embodiments, the UGT1A1 inhibitor is a competitive UGT1A1 inhibitor. In one embodiment, the UGT1A1 inhibitor is also SRPK1 inhibitor and/or an ABCG2 inhibitor.

SMILES: O=C(Nc1cc(C(F)(F)F)cc(C(F)(F)F)c1)Nc1ccc(Br)cc1-c1nnn[nH]1 [SCO-101]
- effect on unconjugated bilirubin serum concentration (UGT1A1 [1]; cancer patients, SCO-101 daily days 1-6): specific and dose dependent increase
- reversibility of UGT1A1 inhibition / bilirubin increase after discontinuation of SCO-101 (UGT1A1 [1]; cancer patients, blood bilirubin after last SCO-101 treatment): completely reversible
- bilirubin index of patients with RAS mutation (UGT1A1 [1]; cohort 1, cycle 1, day 12 / day 7): above 0.4
- mean bilirubin index score (day 12 / day 7 bilirubin serum concentration) (UGT1A1 [1]; six RAS mutated patients): 0.59
- highest bilirubin index score (UGT1A1 [1]; six RAS mutated patients): 0.76
- lowest bilirubin index score (UGT1A1 [1]; six RAS mutated patients): 0.25
- mean bilirubin index score (day 12 / day 7 bilirubin serum concentration) (UGT1A1 [1]; six RAS wild type patients): approximately 0.15
- highest bilirubin index score (UGT1A1 [1]; six RAS wild type patients): 0.28
- lowest bilirubin index score (UGT1A1 [1]; six RAS wild type patients): 0.04
- IC50 (UGT1A1 [2]): 700 to 1900 nM
